Where two headings read alike, the source gives them in different places. Starred links: 1 amine or outer side, 2 acyl side, 3 side chain; linkers in the order of their positions; H or OH if unused. Positions of bridges follow the written chain, without caps; N, C: chain ends. Non-standard residues stand in square brackets, D forms with d. Residues, ends and D or L forms follow the SMILES beside them. Chains are numbered I, II in the order given. Actinocin(9to1) = Cc1c2oc3c(C)ccc(C(=O)[*:1])c3nc-2c(C(=O)[*:2])c(N)c1=O; NMeV = CN[C@H](C(=O)O)C(C)C; Sar = CNCC(=O)O

For data set [1], the system named is mouse ConA cells. Description: DMBA sensitivity of mouse cells. It counts as cell-based. The protocol:
The effect of the identified compounds on DMBA sensitivity of mouse cells also was tested. It has been reported that ABC type transporters (e.g., P-gp) are involved in the efflux of polycyclic aromatic hydrocarbon carcinogens from cells. The effect of the identified compounds on sensitivity of mouse cells to 7,12-dimethylbenz[a]anthracene (DMBA) was determined. […].

In data set [2] the test system is P-gp. Put plainly: Daunorubicin accumulation in ConA cells. It counts as cell-based, mouse. Conditions: for effect on daunorubicin accumulation: ConA cells, two hours with daunorubicin (500 ng/ml), flow cytometry (FIG. 8). The protocol:
Drug accumulation and efflux assay. […] For drug efflux assay, cells after drug incubation were washed thoroughly with PBS, incubated in a drug-free media with or without compounds from the chemical library, and harvested at different time points for flow cytometric analysis (18). […]
(§1) ConA cells were incubated two hours with Rho123 ([…]) or daunorubicin (500 ng/ml) in the presence of the identified compounds, and accumulation of the drugs was quantitated by flow cytometry.
For orientation: A flow cytometer gives signals particle by particle.

The subject of data set [3] is P-gp. Put plainly: Rho123 accumulation in ConA cells. It counts as cell-based, mouse. Also on record: effect on Rho123 efflux/accumulation: dose or concentration left out as unconfirmed. The conditions noted are these: two hours with Rho123, flow cytometry (FIG. 8). The procedure:
Screening of a chemical library. Murine fibroblastoid cell line (ConA) was selected as the readout system for screening a chemical library for P-gp activators. […] Rho123, a classic fluorescent P-gp substrate that is detected easily using multichannel fluorimeter in living cells, was used as an efflux indicator. […] Primary screening was performed on ConA cells for compounds that interfere with Adr-induced activation of p53-responsive reporter LacZ gene as previously described (11). To identify P-gp modulators, all “hits” isolated after primary screening were tested for their ability to modulate cellular accumulation of Rho123. Con A cells grown in 96-well plates were incubated 4 hours with 0.5 μM Rho123 in combination with individual library compounds (2 μg/ml (2-5 μM)), and cell fluorescence was analyzed using fluorescent microscopy.
(§2) Drug accumulation and efflux assay. […] For drug efflux assay, cells after drug incubation were washed thoroughly with PBS, incubated in a drug-free media with or without compounds from the chemical library, and harvested at different time points for flow cytometric analysis (18).
as §1

The subject of data set [4] is ConA cells. Description: Drug sensitivity (growth inhibition) assay, ConA cells. The format is cell-based, mouse. The conditions noted are these: for Effect of Compound 102 on drug sensitivity of cell lines: ConA (Balb 3T3): P-gp-positive ConA cells, label = drug; for Change in sensitivity (x-fold): Compound 102 (10 μM), fold resistance. The protocol: Drug sensitivity assays. To estimate drug-mediated growth inhibition, 10^3 cells were plated per well of 96-well plates, and incubated with a range of concentrations of drugs added 24 hours after plating. […] After elution by 1% SDS solution, optical density was determined on a Multiscan Ascent reader (Lybsystems, Helsinki, Finland) at 650 nm.

The subject of data set [5] is P-gp. The procedure: Drug sensitivity assays. To estimate drug-mediated growth inhibition, 10^3 cells were plated per well of 96-well plates, and incubated with a range of concentrations of drugs added 24 hours after plating. After 5 to […] of drug treatment, plates were fixed and stained using 2% methylene blue solution in 50% methanol. After elution by 1% SDS solution, optical density was determined on a Multiscan Ascent reader (Lybsystems, Helsinki, Finland) at 650 nm.
as §2

[6] abbreviates: label = P-gp substrate drug, three groups.

With `C=CCn1c2ccccc2n2cc(-c3ccccc3)nc12` [Compound 11, 8-Allyl-2-phenyl-8H-1,3a,8-triaza-cyclopenta[a]indene], the “protection of cells from cytotoxicity of DMBA” value (“protection of cells” for short) in data set [1] is “strong protective effect”. In addition, in data set [2], the “effect on daunorubicin accumulation” value is recorded as “two to four times less pronounced effect”. The “effect on Rho123 efflux/accumulation” value in data set [3] was “strong effect”.
For the compound `COc1ccccc1-c1nc(Cc2ccc(Cl)cc2)no1` [Compound 12, 3-(4-Chloro-benzyl)-5-(2-methoxy-phenyl)-[1,2,4]oxadiazole], the “stimulation of P-gp-mediated efflux of daunorubicin relative to Rho123” value in data set [2] (ConA cells (FIG. 8)) is “more effective”.
In the case of Rhodamine 123, the “Effect of Compound 102 on drug sensitivity of cell lines: ConA (Balb 3T3)” value (“Effect … (Balb 3T3)” below) in data set [4] was “R”. For the same compound, the “cytotoxicity of the drug in the presence of Compound 102” value (“cytotoxicity of the drug” for short) in data set [5] is “less toxic”.
Regarding `Cc1ccc(-c2nnc(-c3ccccc3Cl)o2)s1` [Compound 16, 2-(2-Chloro-phenyl)-5-(5-methyl-thiophen-2-yl)-[1,3,4]oxadiazole], the “protection of cells” value in data set [1] was “strong protective effect”. The “effect on daunorubicin accumulation” value in data set [2] is “weak influence”. In addition, in data set [3], the “effect on Rho123 efflux/accumulation” value is recorded as “relatively effective”.
On to `COc1cc2c(c(OC)c1OC)-c1ccc(OC)c(=O)cc1[C@@H](NC(C)=O)CC2` [Colchicine, colchicine], for which, in data set [4], the “Effect … (Balb 3T3)” value is given as “S”.
In the case of `Oc1ccccc1-c1nc(-c2ccccc2O)n(-c2ccccc2)n1` [Compound 15, 2,2′-(1-phenyl-1H-1,2,4-triazole-3,5-diyl)bis-phenol], the “effect on daunorubicin accumulation” value in data set [2] was “weak influence”. Further, the “effect on Rho123 efflux/accumulation” value in data set [3] was “relatively effective”.
Consider `Nc1nc(SCCc2ccccc2)nc2sc3c(c12)CCCC3` [Compound 13, 2-Phenethylsulfanyl-5,6,7,8-tetrahydro-benzo[4,5]thieno[2,3-d]pyrimidin-4-ylamine], for which the “protection of cells” value in data set [1] is “strong protective effect”. Also, in data set [2], the “effect on daunorubicin accumulation” value was “two to four times less pronounced effect”. Moreover, the “effect on Rho123 efflux/accumulation” value in data set [3] is listed as “strong effect”.
On to `CC[C@]1(O)C[C@@H]2CN(CCc3c([nH]c4ccccc34)[C@@](C(=O)OC)(c3cc4c(cc3OC)N(C)[C@H]3[C@@](O)(C(=O)OC)[C@H](OC(C)=O)[C@]5(CC)C=CCN6CC[C@]43[C@@H]65)C2)C1` [Vinblastine, vinblastine], for which the “Change in sensitivity (x-fold)” value in data set [4] (ConA cells) worked out at 0.5 x-fold. Moreover, the “Effect … (Balb 3T3)” value in data set [4] is “S”. Besides, the “cytotoxicity of the drug” value in data set [5] is recorded as “more potent”.
As to `Cc1c2oc3c(C)ccc(C(=O)N[C@@H]4C(=O)N[C@H](C(C)C)C(=O)N5CCC[C@H]5C(=O)N(C)CC(=O)N(C)[C@@H](C(C)C)C(=O)O[C@@H]4C)c3nc-2c(C(=O)N[C@@H]2C(=O)N[C@H](C(C)C)C(=O)N3CCC[C@H]3C(=O)N(C)CC(=O)N(C)[C@@H](C(C)C)C(=O)O[C@@H]2C)c(N)c1=O` [Actinomycin D, actinomycin D] (I: T[dV]P[Sar][NMeV] / II: T[dV]P[Sar][NMeV]; ester I:1-I:C, II:1-II:C; linker I:N-II:N via Actinocin(9to1)), in data set [4] (ConA cells), the “Change in sensitivity (x-fold)” value is listed as 1 x-fold. The same compound displayed an LD50 in data set [4] (ConA cells, drug alone) of 20 ng/mL. Further, in data set [4] (ConA cells, drug in the presence of Compound 102 (10 μM)), the LD50 comp turned out to be 20 ng/mL. The “cytotoxicity of the drug” value in data set [5] was “do not change their cytotoxicity”.
`Cc1ccc(OCC(=O)Nc2ccc(O)c(-c3nc4ccccc4o3)c2)cc1` [Compound 10, N-(3-Benzooxazol-2-yl-4-hydroxy-phenyl)-2-p-tolyloxy-acetamide]: the “effect on daunorubicin accumulation” value in data set [2] is reported as “weak influence”. Further, the “effect on Rho123 efflux/accumulation” value in data set [3] is reported as “relatively effective”.
Regarding `C=C1[C@@H](C)[C@H]2[C@H](Cc3ccccc3)NC(=O)[C@]23[C@H](OC(C)=O)/C=C/[C@@](C)(O)C(=O)[C@@H](C)C/C=C/[C@H]3[C@@H]1O` [cytochalasin D], in data set [5] (setting [6]), the “cytotoxicity of the drug” value is reported as “do not change their cytotoxicity”.
Turning to `COc1cc([C@@H]2c3cc4c(cc3[C@@H](O[C@@H]3O[C@@H]5CO[C@@H](C)O[C@H]5[C@H](O)[C@H]3O)[C@H]3COC(=O)[C@H]23)OCO4)cc(OC)c1O` [Etoposide, etoposide], the “Change in sensitivity (x-fold)” value in data set [4] (ConA cells) is 1.5 x-fold. Also, the “Effect … (Balb 3T3)” value in data set [4] is “Minor R”. The “cytotoxicity of the drug” value in data set [5] is reported as “less toxic”.
Take `CCOc1ccc(-c2nc3ccc(-c4nc5ccc(N6CCN(C)CC6)cc5[nH]4)cc3[nH]2)cc1` [Hoechst 33342]: the “Effect … (Balb 3T3)” value in data set [4] is “S?”. Moreover, in data set [5] (setting [6]), the “cytotoxicity of the drug” value is recorded as “more potent”.
For the compound `Cc1ccc2c(C)nc(N/C(N)=N/C(=O)Cc3ccc(Cl)cc3)nc2c1` [Compound 8, N-[2-(4-Chloro-phenyl)-acetyl]-N′-(4,7-dimethyl-quinazolin-2-yl)-guanidine], the “effect on daunorubicin accumulation” value in data set [2] is on record as “weak influence”. For the same compound, the “effect on Rho123 efflux/accumulation” value in data set [3] was “relatively effective”.
On to `COc1cccc2c1C(=O)c1c(O)c3c(c(O)c1C2=O)C[C@@](O)(C(C)=O)C[C@@H]3O[C@H]1C[C@H](N)[C@H](O)[C@H](C)O1` [Daunorubicin, daunorubicin], for which the “Change in sensitivity (x-fold)” value in data set [4] (ConA cells) is given as 2.5 x-fold. Moreover, the “Effect … (Balb 3T3)” value in data set [4] is on record as “R”. For the same compound, in data set [5], the “cytotoxicity of the drug” value is “less toxic”.
On to `CC(=O)O[C@H]1C(=O)[C@@]2(C)[C@H]([C@H](OC(=O)c3ccccc3)[C@]3(O)C[C@H](OC(=O)[C@H](O)[C@@H](NC(=O)c4ccccc4)c4ccccc4)C(C)=C1C3(C)C)[C@]1(OC(C)=O)CO[C@@H]1C[C@@H]2O` [Taxol, taxol], for which, in data set [4] (ConA cells), the “Change in sensitivity (x-fold)” value amounted to 0.3 x-fold. The “Effect … (Balb 3T3)” value in data set [4] is “S”. In addition, in data set [5], the “cytotoxicity of the drug” value is “more potent”.
Take `COc1ccc(C[C@H](N)C(=O)N[C@H]2[C@@H](O)[C@H](n3cnc4c(N(C)C)ncnc43)O[C@@H]2CO)cc1` [Puromycin, puromycin]: the “Change in sensitivity (x-fold)” value in data set [4] (ConA cells) stood at 1 x-fold. The “cytotoxicity of the drug” value in data set [5] is “do not change their cytotoxicity”.
For `CN[C@H]1CCc2cc(OC)c(OC)c(OC)c2-c2ccc(OC)c(=O)cc21` [Colcemide, colcemid], the “cytotoxicity of the drug” value in data set [5] (setting [6]) is recorded as “do not change their cytotoxicity”.
In the case of `COc1cc2cnc3c(c(Cc4ccccc4)nn3-c3ccccc3)c2cc1OC` [Compound 9, 1-Benzyl-7,8-dimethoxy-3-phenyl-3H-pyrazolo[3,4-c]isoquinoline], the “effect on daunorubicin accumulation” value in data set [2] is recorded as “weak influence”. In data set [3], the “effect on Rho123 efflux/accumulation” value was “relatively effective”.
For `Cc1cc(OCC(=O)Nc2ccc3nn(-c4ccccc4)nc3c2)cc(C)c1Cl` [Compound 7, 2-(4-Chloro-3,5-dimethyl-phenoxy)-N-(2-phenyl-2H-benzotriazol-5-yl)-acetamide], in data set [2], the “effect on daunorubicin accumulation” value is reported as “weak influence”. For the same compound, the “effect on Rho123 efflux/accumulation” value in data set [3] is listed as “relatively effective”.
For the compound `Cc1cc(C)n(CC(O)Cn2c3ccccc3c3ccccc32)n1` (centres unmarked) [Compound 2, 1-Carbazol-9-yl-3-(3,5-dimethyl-pyrazol-1-yl)-propan-2-ol], in data set [2], the “effect on daunorubicin accumulation” value is on record as “weak influence”. Further, the “effect on Rho123 efflux/accumulation” value in data set [3] is listed as “relatively effective”.
In the case of gramicidin D [Gramicidine D], the “Effect … (Balb 3T3)” value in data set [4] is listed as “S”. For the same compound, the “cytotoxicity of the drug” value in data set [5] (setting [6]) is recorded as “more potent”.
`CCOC(=O)Cn1c2ccccc2c2nc3cc4ccccc4cc3nc21` [Compound 14, (5,12,13-Triaza-indeno[1,2-b]anthracen-13-yl)-acetic acid ethyl ester]: the “effect on daunorubicin accumulation” value in data set [2] is recorded as “no effect”.
On to `CC[C@]1(O)C[C@H]2CN(CCc3c([nH]c4ccccc34)[C@@](C(=O)OC)(c3cc4c(cc3OC)N(C=O)[C@H]3[C@@](O)(C(=O)OC)[C@H](OC(C)=O)[C@]5(CC)C=CCN6CC[C@]43[C@@H]65)C2)C1` [Vincristine, vincristine], for which, in data set [4] (ConA cells), the “Change in sensitivity (x-fold)” value is 0.5 x-fold. Also, the “Effect … (Balb 3T3)” value in data set [4] is on record as “S”. Besides, in data set [5], the “cytotoxicity of the drug” value was “more potent”.

The values above are taken from patent publication US6861431B2, “Compounds capable of modulating the activity of multidrug transporters and therapeutic use of the same” (The Board of Trustees of the University of Illinois, priority 2001, dated 2005).
